Results as given in patent US20080182848A1, “Novel Process” (priority 2005, published 2008).

Assay: solubility in the mobile phase (isopropanol)
Format: physicochemical
Conditions: organic solvent or mixture; crude material; isopropanol as the mobile phase
Protocol: Racemic zopiclone was subjected to preparative chromatography using Chiralcel® OD as the stationery phase and isopropanol as the mobile phase. Under these conditions the crude material has a good solubility in the mobile phase (>1.0 g/liter) and the typical retention time for the R-isomer is 12.3 minutes and for the S-isomer is 17.8 minutes. Some physico-chemical properties of the S-zopiclone obtained are set out in table 1.

With `CN1CCN(C(=O)OC2c3nccnc3C(=O)N2c2ccc(Cl)cn2)CC1` (racemic) [Racemic zopiclone, (±) of 6-(5-chloro-2-pyridinyl)-6,7-dihydro-7-oxo-5H-pyrrolo-[3,4b]-pyrazin-5-yl-4-methylpiperazine-1-caboxylate] the solubility was > 1 mg/mL.
